Test results: patent US12635691B2, “Fipronil containing insecticide gels” (Henkel AG & Co. KGaA, priority 2022, dated 2026)
Entries after “also recorded” stand apart in the source; their conditions may differ.

Experiment: Migration of fipronil from the gel formula into the container, by container material
Type: physicochemical
Description: When the products are formulated in a gel medium, they are often packaged in the forms of capsules, syringes, or adhesive strips. The packaging materials frequently contain plastics. […] Such plastics may include, but are not limited to, polystyrene/butadiene blend, polyethylene (PE) thermoformed, or PET/PE copolymer […].
Fipronil has a solubility in water around 0.002 g/l (20° C.). At a level of […], fipronil is soluble in the water-based matrix because its solubility in water is 0.002 g/l (20° C., BASF SDS). However, although being soluble in the formula, fipronil tends to migrate, under room temperature conditions and in high temperatures (tested up to 54° C.), into the container (i.e., plastic packaging) depending on the material that the container is made of: • a. […] PET/PE thermoformed→Migration • c. Polyethylene thermoform→Migration • d. Polyethylene injected→No migration • e. Polystyrene→No migration • f. Polystyrene/Butadiene (4%)→migration

In the case of `N#Cc1nn(-c2c(Cl)cc(C(F)(F)F)cc2Cl)c(N)c1[S+]([O-])C(F)(F)F` (stereo not drawn) [Fipronil, 1-[2,6-Cl2 4-CF3 phenyl] 3-CN 4-[SO—CF3] 5-NH2 pyrazole], the “Migration of fipronil into the container” value (container: Glass (used as reference), room temperature and high temperatures (tested up to 54° C.)) is reported as “No migration, formula stable; also recorded: no fipronil migration”, the “Migration of fipronil into the container” value (container: PET/PE thermoformed, room temperature and up to 54° C.) is reported as “Migration” and the “Migration of fipronil into the container” value (container: Polyethylene injected, room temperature and up to 54° C.) is reported as “No migration”. For the same compound, the “Migration of fipronil into the container” value (container: Polyethylene thermoform, room temperature and up to 54° C.) was “Migration”, the “Migration of fipronil into the container” value (container: Polystyrene/Butadiene (4%), room temperature and up to 54° C.) was “migration” and the “Migration of fipronil into the container” value (container: Polystyrene, room temperature and up to 54° C.) was “No migration”.
